According to PMC7660874 (Journal of the American Heart Association: Cardiovascular …, 2020):

What was measured:
[1] = target: human TASK-1 (hTASK-1, hK2P3.1) (Homo sapiens, UniProt O14649); assay: two-electrode voltage clamp in Xenopus oocytes at […]; format: cell-based; conditions: read-out: % of control current at 100 μmol/L
[2] = target: porcine TASK-1 (pTASK-1) (Sus scrofa, UniProt A0A286ZMZ4); assay: as above; format: cell-based; conditions: read-out: % of control current at 100 μmol/L
porcine TASK-1 (pTASK-1), sequence (A0A286ZMZ4 1-401): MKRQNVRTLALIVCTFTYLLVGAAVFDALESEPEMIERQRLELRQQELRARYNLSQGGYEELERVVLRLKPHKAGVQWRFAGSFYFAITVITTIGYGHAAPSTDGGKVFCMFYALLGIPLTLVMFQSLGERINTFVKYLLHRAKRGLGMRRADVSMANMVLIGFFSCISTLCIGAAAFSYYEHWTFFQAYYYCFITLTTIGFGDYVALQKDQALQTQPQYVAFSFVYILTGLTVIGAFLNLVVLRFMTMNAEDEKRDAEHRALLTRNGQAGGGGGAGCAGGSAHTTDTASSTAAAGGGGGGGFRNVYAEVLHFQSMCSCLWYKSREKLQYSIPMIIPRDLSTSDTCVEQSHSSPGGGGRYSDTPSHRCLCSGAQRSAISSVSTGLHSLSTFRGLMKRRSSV

human TASK-1 (hTASK-1, hK2P3.1), sequence (O14649 whole entry): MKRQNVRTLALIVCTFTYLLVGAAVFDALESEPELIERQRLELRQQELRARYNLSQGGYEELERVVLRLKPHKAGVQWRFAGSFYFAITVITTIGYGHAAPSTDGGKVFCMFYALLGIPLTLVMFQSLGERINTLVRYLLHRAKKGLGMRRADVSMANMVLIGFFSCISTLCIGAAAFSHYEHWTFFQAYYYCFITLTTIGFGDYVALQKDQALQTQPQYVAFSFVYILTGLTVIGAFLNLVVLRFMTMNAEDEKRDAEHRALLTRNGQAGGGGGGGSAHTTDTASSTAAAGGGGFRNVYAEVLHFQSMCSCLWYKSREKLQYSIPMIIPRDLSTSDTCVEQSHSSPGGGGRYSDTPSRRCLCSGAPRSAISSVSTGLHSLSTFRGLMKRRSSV

CCCCS(=O)(=O)Nc1ccccc1C(=O)N[C@H](CC)c1ccc(OC)nc1 [A293, 2‐(butylsulfonylamino)‐N‐[(1R)‐1‐(6‐methoxy‐3‐pyridyl)propyl]‐benzamide]
remaining activity at 100 µM [1]: 21.3 ± 8.7% | remaining activity at 100 µM [2]: 28 ± 6.8%
